Test results from patent publication US8454934B2, “High molecular weight chelation structure” (Canadian Blood Services, priority 2006, dated 2013).

Columns and labels:
[1] = Solubility in water and plasma, by absorbance versus wavelength (FIG. 20A); type: physicochemical; conditions: absorbance plots FIG. 20A, HMW-ICL-670 was 20% (by weight) ICL-670
Description: FIGS. 20A and 20B are plots of absorbance of radiation in water versus wavelength of the radiation, for low molecular weight ICL670 (3 mg/ml) and the chelation structure of the present invention (denoted as HMW) dissolved in the water, in accordance with embodiments of the present invention. […] The measured absorbance increases with increasing concentration of the chelators/chelation structures dissolved in the water and is thus a measure of the solubility of the chelators/chelation structures in the water.

[2] = upon intravascular administration; cellular uptake and kidney clearance; cited from earlier work
mice = conditions: cited from earlier work

solubility in water [1] | SMILES | time to complete clearance from the vasculature [2] | LD50 (mice) [mg/kg]
insoluble in water | O=C(O)c1ccc(-n2nc(-c3ccccc3O)nc2-c2ccccc2O)cc1 [ICL670, 4-[3,5-bis(2-hydroxyphenyl)-1,2,4-triazol-1-yl]-benzoic acid] | – | –
– | CC(=O)N(O)CCCCCNC(=O)CCC(=O)N(O)CCCCCNC(=O)CCC(=O)N(O)CCCCCN.CS(=O)(=O)O [DFO, N-[5-(3-[(5-aminopentyl)-hydroxycarbamoyl]-propionamido)pentyl]-3-([5-(N-hydroxyacetamido)-pentyl]-carbamoyl)-propionohydroxamic acid monomethane sulphonate] | approximately 20 minutes | ~250
